From patent US10329289B2, “6,7-dihydro-5H-pyrrolo[3,4-B]pyridin-5-one allosteric modulators of the M4 muscarinic acetylcholine receptor” (Merck Sharp & Dohme Corp., priority 2015, dated 2019)

target: T1, human M4 muscarinic acetylcholine receptor (Homo sapiens, UniProt P08173); test: human FLIPR-based M4 PAM assay (Ca2+ mobilization, CHO-K1 cells with human M4 receptor and Gαqi5); assay type: cell-based; conditions: acetylcholine at 20% of maximum response, read-out: M4 PAM IP
T1 construct: expressed in transfected cells; host or cells: CHO-K1
T1 sequence (P08173 1-479): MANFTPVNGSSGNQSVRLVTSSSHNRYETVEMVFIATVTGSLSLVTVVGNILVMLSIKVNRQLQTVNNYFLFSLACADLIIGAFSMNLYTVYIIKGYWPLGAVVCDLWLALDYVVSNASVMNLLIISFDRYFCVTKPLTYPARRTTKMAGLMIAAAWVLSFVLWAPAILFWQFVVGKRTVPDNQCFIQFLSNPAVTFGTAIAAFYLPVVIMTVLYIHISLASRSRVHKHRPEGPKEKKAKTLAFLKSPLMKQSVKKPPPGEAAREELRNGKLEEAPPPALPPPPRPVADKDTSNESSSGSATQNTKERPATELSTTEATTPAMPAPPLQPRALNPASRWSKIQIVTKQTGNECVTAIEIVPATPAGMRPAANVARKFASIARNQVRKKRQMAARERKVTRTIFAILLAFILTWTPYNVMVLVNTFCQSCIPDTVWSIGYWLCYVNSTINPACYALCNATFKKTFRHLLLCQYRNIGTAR
Description: In a typical experiment the M4 muscarinic acetylcholine receptor modulating activity of the compounds of the present invention was determined in accordance with the following experimental method. CHO-K1 cells stably transfected with human M4 receptor and chimeric G-protein Gαqi5 (Coward P, et al., Analytical Biochemistry, 270:242-248 (1999)) are thawed from liquid N2 storage, resuspended in growth medium, plated in black, clear bottom 384 well plates, and incubated 16-20 hours at 37° C., 5% CO2. On the day of assay, growth medium is removed, the cells are washed 2 times with wash buffer, and cells are incubated in dye loading buffer at 37° C., 5% CO2 for ˜1 hour. […] Next, 10 uL of acetylcholine is added (final concentration calculated so as to achieve 20% of the maximum acetycholine response), and the fluorescence reading is continued for 3.5 min. In some cases, a third addition of acetylcholine (final concentration calculated to achieve 70% of the maximal acetylcholine response) is performed. The resulting dose response curves are fit to a 4 parameter logistic equation and the final result is determined as the inflection point (IP) of the curve
CHO-K1 cells stably transfected with human M4 receptor and chimeric G-protein Gαqi5 are thawed from liquid N2 storage, resuspended in growth medium, plated in black, clear bottom 384 well plates, and incubated 16-20 hours at 37° C., 5% CO2.
On the day of assay, growth medium is removed, the cells are washed 2 times with wash buffer, and cells are incubated in dye loading buffer at 37° C., 5% CO2 for ˜1 h. […] Next, 10 uL of acetylcholine is added (final concentration calculated so as to achieve 20% of the maximum acetycholine response), and the fluorescence reading is continued for 3.5 min. In some cases, a third addition of acetylcholine (final concentration calculated to achieve 70% of the maximal acetylcholine response) is performed.

Compound	EC50
COCCOc1ccc(O[C@H]2CCN(c3nc4c(cc3C)C(=O)NC4)C[C@H]2F)cn1 (stereo in doubt) [Example 61, 2-((3R,4S)-3-fluoro-4-((6-(2-methoxyethoxy)pyridin-3-yl)oxy)piperidin-1-yl)-3-methyl-6,7-dihydro-5H-pyrrolo[3,4-b]pyridin-5-one]	135 nM
COc1ccc(OC2CCN(c3nc4c(cc3C)C(=O)NC4)CC2)cn1 [Example 1, 2-(4-((6-methoxypyridin-3-yl)oxy)piperidin-1-yl)-3-methyl-6,7-dihydro-5H-pyrrolo[3,4-b]pyridin-5-one]	27 nM
Cc1cc2c(nc1N1CCC(Oc3cccc(C#N)c3)CC1)CNC2=O [Example 3, 3-((1-(3-methyl-5-oxo-6,7-dihydro-5H-pyrrolo[3,4-b]pyridin-2-yl)piperidin-4-yl)oxy)benzonitrile]	25 nM
Cc1cc2c(nc1N1CCC(Oc3ccc4c(cnn4C)c3)CC1)CNC2=O [Example 4, 3-methyl-2-(4-((1-methyl-1H-indazol-5-yl)oxy)piperidin-1-yl)-6,7-dihydro-5H-pyrrolo[3,4-b]pyridin-5-one]	49 nM
Cc1cc2c(nc1N1CCC(OC(F)F)CC1)CNC2=O [Example 4A, 2-(4-(difluoromethoxy)piperidin-1-yl)-3-methyl-6,7-dihydro-5H-pyrrolo[3,4-b]pyridin-5-one]	2770 nM
Cc1cc2c(nc1N1CCC(Oc3ccccc3)CC1)CNC2=O [Example 5, 3-methyl-2-(4-phenoxypiperidin-1-yl)-6,7-dihydro-5H-pyrrolo[3,4-b]pyridin-5-one]	21 nM
CCc1cc2c(nc1N1CC[C@@H](Oc3ccc4c(cnn4C)c3)[C@@H](F)C1)CNC2=O [Example 5A, 3-ethyl-2-((3S,4R)-3-fluoro-4-((1-methyl-1H-indazol-5-yl)oxy)piperidin-1-yl)-6,7-dihydro-5H-pyrrolo[3,4-b]pyridin-5-one]	121 nM
CCc1cc2c(nc1N1CC[C@H](OCC3(C)CC3)[C@@H](F)C1)CNC2=O [Example 6A, 3-ethyl-2-((3S,4S)-3-fluoro-4-((1-methylcyclopropyl)methoxy)piperidin-1-yl)-6,7-dihydro-5H-pyrrolo[3,4-b]pyridin-5-one]	150 nM
Cc1cc2c(nc1N1CC[C@@H](Oc3ccc4[nH]ncc4c3)[C@@H](F)C1)CNC2=O [Example 8, 2-((3S,4R)-4-((1H-indazol-5-yl)oxy)-3-fluoropiperidin-1-yl)-3-methyl-6,7-dihydro-5H-pyrrolo[3,4-b]pyridin-5-one]	14 nM
Cc1cc2c(nc1N1CCC(OC[C@@]3(C)CC3(F)F)CC1)CNC2=O [Example 8A, (R)-2-(4-((2,2-difluoro-1-methylcyclopropyl)methoxy)piperidin-1-yl)-3-methyl-6,7-dihydro-5H-pyrrolo[3,4-b]pyridin-5-one]	87 nM
Cc1cc2c(nc1N1CCC(OC[C@]3(C)CC3(F)F)CC1)CNC2=O [Example 8B, (S)-2-(4-((2,2-difluoro-1-methylcyclopropyl)methoxy)piperidin-1-yl)-3-methyl-6,7-dihydro-5H-pyrrolo[3,4-b]pyridin-5-one]	501 nM
Cc1cc2c(nc1N1CCC(OCC3CC3)CC1)CNC2=O [Example 9, 2-(4-(cyclopropylmethoxy)piperidin-1-yl)-3-methyl-6,7-dihydro-5H-pyrrolo[3,4-b]pyridin-5-one]	83 nM
Cc1cc2c(nc1N1CCC(Oc3ccc4c(c3)C(=O)N(C3CC3)C4)CC1)CNC2=O [Example 10, 2-(4-((2-cyclopropyl-3-oxoisoindolin-5-yl)oxy)piperidin-1-yl)-3-methyl-6,7-dihydro-5H-pyrrolo[3,4-b]pyridin-5-one]	179 nM
Cc1cc2c(nc1N1CCC(Oc3cccc(C#N)c3)CC1)CN(C)C2=O [Example 11, 3-((1-(3,6-dimethyl-5-oxo-6,7-dihydro-5H-pyrrolo[3,4-b]pyridin-2-yl)piperidin-4-yl)oxy)benzonitrile]	38 nM
Cc1cc2c(nc1N1CCC(Oc3ccc4[nH]ncc4c3)CC1)CN(C)C2=O [Example 12, 2-(4-((1H-indazol-5-yl)oxy)piperidin-1-yl)-3,6-dimethyl-6,7-dihydro-5H-pyrrolo[3,4-b]pyridin-5-one]	16 nM
Cc1cc2c(nc1N1CCC(Oc3cccc(C#N)c3)CC1)C(C)N(C)C2=O (stereo not drawn) [Example 13, 3-((1-(3,6,7-trimethyl-5-oxo-6,7-dihydro-5H-pyrrolo[3,4-b]pyridin-2-yl)piperidin-4-yl)oxy)benzonitrile]	174 nM
Cc1cc2c(nc1N1CCC(Oc3ccc4[nH]ncc4c3)CC1)C(C)N(C)C2=O (stereo not drawn) [Example 14, 2-(4-((1H-indazol-5-yl)oxy)piperidin-1-yl)-3,6,7-trimethyl-6,7-dihydro-5H-pyrrolo[3,4-b]pyridin-5-one]	52 nM
Cc1cc2c(nc1N1CCC(Oc3cccc(C#N)c3)CC1)C(C)(C)N(C)C2=O [Example 15, 3-((1-(3,6,7,7-tetramethyl-5-oxo-6,7-dihydro-5H-pyrrolo[3,4-b]pyridin-2-yl)piperidin-4-yl)oxy)benzonitrile]	1990 nM
COc1ccc(OC2CCN(c3nc4c(cc3C)C(=O)N(C)C4C)CC2)cn1 (stereo not drawn) [Example 16, 2-(4-((6-methoxypyridin-3-yl)oxy)piperidin-1-yl)-3,6,7-trimethyl-6,7-dihydro-5H-pyrrolo[3,4-b]pyridin-5-one]	81 nM
COc1ccc(OC2CCN(c3nc4c(cc3C)C(=O)N(C)C4(C)C)CC2)cn1 [Example 17, 2-(4-((6-methoxypyridin-3-yl)oxy)piperidin-1-yl)-3,6,7,7-tetramethyl-6,7-dihydro-5H-pyrrolo[3,4-b]pyridin-5-one]	1170 nM
COc1ccc(OC2CCN(c3nc4c(cc3C)C(=O)N(C)C4)CC2)cn1 [Example 18, 2-(4-((6-methoxypyridin-3-yl)oxy)piperidin-1-yl)-3,6-dimethyl-6,7-dihydro-5H-pyrrolo[3,4-b]pyridin-5-one]	36 nM
Cc1cc2c(nc1N1CC[C@H](Oc3cccc(C#N)c3)[C@H](F)C1)CNC2=O [Example 19, 3-(((3R,4S)-3-fluoro-1-(3-methyl-5-oxo-6,7-dihydro-5H-pyrrolo[3,4-b]pyridin-2-yl)piperidin-4-yl)oxy)benzonitrile]	57 nM
Cc1cc2c(nc1N1CC[C@H](Oc3cccc(C#N)c3)[C@@H](F)C1)CNC2=O [Example 20, 3-(((3S,4S)-3-fluoro-1-(3-methyl-5-oxo-6,7-dihydro-5H-pyrrolo[3,4-b]pyridin-2-yl)piperidin-4-yl)oxy)benzonitrile]	83 nM

Second part, the molecule after the results:

EC50	Compound
28 nM	Cc1cc2c(nc1N1CCC(Oc3ccc4c(c3)C[C@H](O)C4)CC1)CNC2=O (single isomer, unassigned) [Example 324B]
1140 nM	Cc1cc2c(nc1N1CCC(Oc3cnc4c(c3)CC[C@@H]4O)CC1)CNC2=O (single isomer, unassigned) [Example 324C]
682 nM	Cc1cc2c(nc1N1CCC(Oc3cnc4c(c3)CC[C@H]4O)CC1)CNC2=O (single isomer, unassigned) [Example 324D]
47 nM	Cc1c(N2CCC(OC[C@@]3(C)CC3(F)F)CC2)nc2c(c1C)C(=O)NC2 (single isomer, unassigned) [Example 329A]
20 nM	Cc1c(N2CCC(Oc3ccc4c(c3)COC4)CC2)nc2c(c1C)C(=O)N(C)[C@@H]2CO (single isomer, unassigned) [Example 337A]
867 nM	Cc1c(N2CCC(Oc3ccc4c(c3)COC4)CC2)nc2c(c1C)C(=O)N(C)[C@H]2CO (single isomer, unassigned) [Example 337B]
42 nM	Cc1c(N2CCC(Oc3ccc4c(c3)COCC4)CC2)nc2c(c1C)C(=O)N(C)[C@@H]2CO (single isomer, unassigned) [Example 337C]
613 nM	Cc1c(N2CCC(Oc3ccc4c(c3)COCC4)CC2)nc2c(c1C)C(=O)N(C)[C@H]2CO (single isomer, unassigned) [Example 337D]
416 nM	CCc1cc2c(nc1N1CC[C@@H](OCC3(C)CC3)C(F)(F)C1)CNC2=O (single isomer, unassigned) [Example 374A]
45 nM	CCc1cc2c(nc1N1CC[C@H](OCC3(C)CC3)C(F)(F)C1)CNC2=O (single isomer, unassigned) [Example 374B]
